Experimental data taken from patent US20250320140A1, “USE OF MEDIUM CHAIN PERACIDS FOR BIOFILM INHIBITION IN INDUSTRIAL RECIRCULATING WATER SYSTEMS” (ECOLAB USA INC., priority 2017, published 2025).

Experiment: Solubility of sulfonated peracids at pH 4
Format: physicochemical
Conditions: pH of 4

Which solubility does the source give for `O=C(CCCCCCCCCCS(=O)(=O)O)OO` [11-sulfoundecane peroxoic acid] here?
The solubility was “about 1.3%”.
